Assay results reported in paper PMC6273769, “Screening of Potential Xanthine Oxidase Inhibitors in Gnaphalium hypoleucum DC. by Immobilized Metal Affinity Chromatography and Ultrafiltration-Ultra Performance Liquid Chromatography-Mass Spectrometry” (Molecules, 2016).
Read-outs that look alike come from different tables or passages of the source.

What was measured:
[1] = biological target: T1, xanthine oxidase (Bos taurus, UniProt P80457); assay: XO activity assay (uric acid absorbance at […] nm) with Lineweaver-Burk kinetics (Ki […]); also retained by XO in ultrafiltration UPLC-MS; assay type: biochemical
T1 construct: gene XDH

[2] = biological target: T1, xanthine oxidase; assay: as above; assay type: biochemical; remark: listed apart in the source

T1 sequence (P80457 2-1332): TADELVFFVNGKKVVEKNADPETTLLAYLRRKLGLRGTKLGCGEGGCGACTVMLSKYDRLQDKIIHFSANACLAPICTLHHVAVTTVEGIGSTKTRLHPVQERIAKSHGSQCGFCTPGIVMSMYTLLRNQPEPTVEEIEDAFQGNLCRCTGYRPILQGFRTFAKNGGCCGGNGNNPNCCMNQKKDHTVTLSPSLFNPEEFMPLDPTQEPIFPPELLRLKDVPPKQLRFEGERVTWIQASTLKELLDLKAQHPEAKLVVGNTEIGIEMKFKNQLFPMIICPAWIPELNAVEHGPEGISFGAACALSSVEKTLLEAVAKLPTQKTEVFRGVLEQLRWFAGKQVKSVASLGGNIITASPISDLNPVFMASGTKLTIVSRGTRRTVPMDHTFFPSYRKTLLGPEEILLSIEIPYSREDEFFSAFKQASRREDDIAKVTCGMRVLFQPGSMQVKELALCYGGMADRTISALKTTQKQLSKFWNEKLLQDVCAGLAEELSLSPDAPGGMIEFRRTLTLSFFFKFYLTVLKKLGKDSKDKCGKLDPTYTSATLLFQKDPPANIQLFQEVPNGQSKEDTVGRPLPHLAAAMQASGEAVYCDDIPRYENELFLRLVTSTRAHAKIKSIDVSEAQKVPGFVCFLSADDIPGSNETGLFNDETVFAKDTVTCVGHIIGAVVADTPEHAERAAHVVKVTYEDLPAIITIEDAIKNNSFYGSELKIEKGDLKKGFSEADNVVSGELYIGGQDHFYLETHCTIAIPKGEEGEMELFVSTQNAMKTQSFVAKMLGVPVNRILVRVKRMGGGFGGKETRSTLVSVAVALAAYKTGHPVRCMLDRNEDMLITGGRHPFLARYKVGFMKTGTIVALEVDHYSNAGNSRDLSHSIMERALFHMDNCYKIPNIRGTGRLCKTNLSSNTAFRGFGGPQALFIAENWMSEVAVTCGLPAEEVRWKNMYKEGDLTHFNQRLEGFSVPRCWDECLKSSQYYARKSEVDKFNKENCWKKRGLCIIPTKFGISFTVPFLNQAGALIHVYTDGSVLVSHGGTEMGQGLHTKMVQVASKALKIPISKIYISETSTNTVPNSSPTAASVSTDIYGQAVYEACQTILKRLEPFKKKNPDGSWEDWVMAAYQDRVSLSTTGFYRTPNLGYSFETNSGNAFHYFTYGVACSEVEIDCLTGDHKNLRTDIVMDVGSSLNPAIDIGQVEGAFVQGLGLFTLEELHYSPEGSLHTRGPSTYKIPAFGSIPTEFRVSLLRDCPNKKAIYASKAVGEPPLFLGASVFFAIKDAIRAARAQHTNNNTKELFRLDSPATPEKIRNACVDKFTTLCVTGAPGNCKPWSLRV

Row | IC50 [1] [nM] | IC50 [2] [nM] | Compound
1 | 580 |  | O=c1cc(-c2ccc(O[C@@H]3O[C@H](CO)[C@@H](O)[C@H](O)[C@H]3O)c(O)c2)oc2cc(O)cc(O)c12 [luteolin-4′-O-glucoside]
2 |  | 1500 | O=c1cc(-c2ccc(O)c(O)c2)oc2cc(O)cc(O)c12 [luteolin]
